Test results published in patent US20190083679A1, “Amorphous Inorganic Polyphosphate-Calcium-Phosphate And Carbonate Particles As Morphogenetically Active Coatings and Scaffolds” (NanotecMARIN GmbH, priority 2014, published 2019).

What was measured:
[1] = tested on: alkaline phosphatase (ALP); details: normalized to GAPDH, 100 μM gallium nitrate
Protocol: The expression values were normalized to the expression of GAPDH. […] The cultures were incubated at first in the absence of the MAC for 3 d; then they were transferred to medium, supplemented with the MAC, and the incubation was continue for additional 3 or 5 d, as outlined. Then the cells were harvested, RNA was extracted and subjected to qRT-PCR for determination of both CA IX and ALP transcripts; the expression of GAPDH served as reference. Data are expressed as mean values±SD for five independent experiments; each experiment was carried out in duplicate (* P<0.01). nd, not detectable.
In parallel, the expression of the gene for the enzyme ALP was determined, likewise by qRT-PCR.
Bone cell like SaOS-2 cells (human osteogenic sarcoma cells) are cultured in McCoy's medium (Biochrom-Seromed), supplemented with 2 mM L-glutamine, 10% or 15% heat-inactivated fetal calf serum (FCS), and 100 units/ml penicillin and 100 μg/ml streptomycin. The cells are incubated in 25-cm^2 flasks or in 6-well plates (surface area 9.46 cm^2; e.g. from Orange Scientifique) in a humidified incubator at 37° C. […]
The quantitative real-time RT [reverse transcription]-PCR (qRT-PCR) technique is applied to determine the effect of the discs on the expression levels of the following genes in SaOS-2 cells. […] After determinations of the Ct values the expression of the respective transcripts are calculated.

[2] = tested on: carbonic anhydrase IX (CA IX); assay: CA IX gene expression in SaOS-2 cells on discs (qRT-PCR); assay type: cell-based, human; details: normalized to GAPDH, 100 μM gallium nitrate
Protocol: As a marker for the functional activity of the SaOS-2 cells, growing onto titanium discs, the expression of the two genes encoding for the enzymes carbonic anhydrase IX (CA IX) and alkaline phosphatase (ALP) was determined by quantitative qRT-PCR.
(SEQ ID NO: 8). […] (SEQ ID NO. 10).

Compound: O=[N+]([O-])[O-].O=[N+]([O-])[O-].O=[N+]([O-])[O-].[Ga+3] [gallium nitrate]
- ALP expression, with Ga, −MAC 0 d [1]: 0.027 ± 0.004
- ALP expression, with Ga, +MAC 5 d ([1]; 3 d −MAC then 5 d +MAC): 0.111 ± 0.010
- CA IX expression, with Ga, −MAC 0 d [2]: 0.24±0.05
- CA IX expression, with Ga, +MAC 5 d ([2]; 3 d −MAC then 5 d +MAC): 0.89±0.11
